Test results: patent US20200163984A1, “USE OF ISOVALERYL SPIRAMYCIN I, II AND/OR III IN MANUFACTURING MEDICAMENT FOR TREATING AND/OR PREVENTING TUMOR, AND MEDICAMENT” (SHENYANG FUYANG PHARMACEUTICAL TECHNOLOGY CO., LTD., priority 2017, published 2020)
In brackets after ≈: the same amount, converted by molar mass.

What was measured:
[1] = system: human breast cancer cells MCF-7; conditions: MCF-7, MTT, 48 hours
Procedure: (§1) The purpose of the assay is to evaluate the in vitro cell proliferation inhibition or cytotoxic activity of a tested sample.
(§2) MCF-7, MDA-MB-231, HepG2, A549, H460, H1299, 786-0, 769-P, U251, A172, HeLa, PC3, PANC-1, TE-1, SGC7901, and HT-29 were adherent tumor cells. The adherent tumor cells in the logarithmic growth phase were selected and digested with trypsin, then were prepared into a 4 to 5×10^4/ml cell suspension by a medium containing 10% fetal bovine serum. And the cell suspension was inoculated in a 96-well culture plate, and each well was 100 μL. The 96-well culture plate was cultured at 37° C. and 5% CO2 for 24 hours. The experimental group was replaced with a new culture medium containing different concentrations of the sample to be tested, namely, isovaleryl spiramycin I, isovaleryl spiramycin II, or isovaleryl spiramycin III, while the control group was replaced with a culture medium containing the same volume of solvent. Each group was set up with 3 parallel wells that were cultured at 37° C. and 5% CO2 for 48 hours. After the supernatant was removed, the wells were washed carefully for 3 times with PBS. And 100 μL of freshly prepared culture medium containing 0.5 mg/ml MTT was added to each well for continuous incubation for 4 hours at 37° C. After the supernatant was removed carefully, 150 μL of DMSO was added to each well, and after the material was mixed for 10 minutes with a micro-oscillator, the optical density value was measured at 492 nm with a microplate reader.
(§3) The inhibition rate of the medicament on tumor cell growth is calculated according to the following formula:
(§4) Tumor cell growth inhibition rate (%)=[A492 (negative control)−A492 (dosing group)]/A492 (negative control)×100%
(§5) And the half-inhibitory concentration (IC50) of the sample is determined therefrom.

[2] = system: human breast cancer cells MDA-MB-231; conditions: MDA-MB-231, MTT, 48 hours
Procedure: as §1, §2, §3, §4, §5

[3] = system: human cervical cancer cell HeLa; conditions: MTT, 48 hours
Procedure: as §1, §2, §3, §4, §5

[4] = system: human colon cancer cell HT-29; conditions: HT-29, MTT, 48 hours
Procedure: as §1, §2, §3, §4, §5

[5] = system: human esophageal cancer cell TE-1; conditions: TE-1, MTT, 48 hours
Procedure: as §1, §2, §3, §4, §5

[6] = system: human gastric adenocarcinoma cell SGC7901; conditions: SGC-7901, MTT, 48 hours
Procedure: as §1, §2, §3, §4, §5

[7] = system: human glioblastoma cell A172; conditions: A172, MTT, 48 hours
Procedure: as §1, §2, §3, §4, §5

human glioma cell U251 = conditions: U251, MTT, 48 hours
Procedure: as §1, §2, §3, §4, §5

[8] = system: human hepatoma cells HepG2; conditions: HepG2, MTT, 48 hours
Procedure: as §1, §2, §3, §4, §5

[9] = system: human large cell lung cancer cells H1299; conditions: H1299, MTT, 48 hours
Procedure: as §1, §2, §3, §4, §5

[10] = system: human large cell lung cancer cells H460; conditions: H460, MTT, 48 hours
Procedure: as §1, §2, §3, §4, §5

[11] = system: human non-small cell lung cancer cells A549; conditions: A549, MTT, 48 hours
Procedure: as §1, §2, §3, §4, §5

[12] = system: human pancreatic cancer cell PANC-1; conditions: PANC-1, MTT, 48 hours
Procedure: as §1, §2, §3, §4, §5

[13] = system: human prostate cancer cell PC3; conditions: PC3, MTT, 48 hours
Procedure: as §1, §2, §3, §4, §5

[14] = system: human renal cell adenocarcinoma cell 769-P; conditions: MTT, 48 hours
Procedure: as §1, §2, §3, §4, §5

[15] = system: human renal clear cell adenocarcinoma cell 786-O; conditions: MTT, 48 hours
Procedure: as §1, §2, §3, §4, §5

[16] = system: transplanted tumor of HT-29 cells; experiment: HT-29 transplanted tumor in nude mice; conditions: for Inhibition Rate (%) / Tumor Weight: HT-29 nude mice; for Tumor Volume (mm3) (d30): d 30
Procedure: Then cell concentration was adjusted to 1×10^7/ml with matrigel, then each nude mouse was inoculated subcutaneously with 0.2 ml of cells at its right armpit and recorded as the first day of inoculation. When the tumor grows to be greater than or equal to 100 mm^3, the mice were randomly divided into 11 groups with 6 mice in each group: isovaleryl spiramycin I groups with doses of 25, 50 and 100 mg/kg, isovaleryl spiramycin II groups with doses of 25, 50 and 100 mg/kg, and isovaleryl spiramycin III groups with doses of 25, 50 and 100 mg/kg. Each group was continuously administered intragastrically for 30 days with a dose of 20 ml/kg. The mice were sacrificed the next day after drug withdrawal and the indicators were tested. The long diameter and short diameter of the tumor, and the body weight of each mouse were recorded every 3 days from drug administration to nude mouse sacrifice.
The body weight of the nude mice and the long diameter (a) and short diameter (b) of the transplanted tumor were measured every 3 days, and the tumor volume (v), relative tumor volume (RTV) and relative tumor proliferation rate (T/C) are calculated respectively according to the following formulas, wherein V=a×b^2/2; RTV=V/V0 (V0 is the tumor volume before administration, V is the tumor volume before sacrifice), and T/C (%)=treatment group RTV/model control group RTV×100%.
Each mouse was weighed and sacrificed. After the tumor was completely stripped off from the body of the mouse, the non-tumor tissues such as blood stains and fat were removed to weigh the tumor and calculate the tumor growth inhibition rate. The average tumor weight of each group of mice is used as an indicator of efficacy. Tumor growth inhibition rate (%)=(1−the average tumor weight of the treatment group/the average tumor weight of the model group)×100%.

[17] = HT-29, high dose (100 mg/kg in method) i.g. 30 days
[18] = HT-29, low dose (25 mg/kg in method) i.g. 30 days
[19] = HT-29, medium dose (50 mg/kg in method) i.g. 30 days

IC50 [1]: 51.14 ± 2.54 µg/mL (≈ 52.8 µM)
IC50 [2]: 49.60 ± 0.39 µg/mL (≈ 51.2 µM)
IC50 [3]: 33.31 ± 0.40 µg/mL (≈ 34.4 µM)
IC50 [4]: 31.05 ± 3.23 µg/mL (≈ 32 µM)
IC50 [5]: 35.59 ± 2.64 µg/mL (≈ 36.7 µM)
IC50 [6]: 39.14 ± 1.21 µg/mL (≈ 40.4 µM)
IC50 [7]: 33.62 ± 0.57 µg/mL (≈ 34.7 µM)
IC50 (human glioma cell U251): 35.35 ± 1.57 µg/mL (≈ 36.5 µM)
IC50 [8]: 37.94 ± 1.71 µg/mL (≈ 39.1 µM)
IC50 [9]: 42.24 ± 0.44 µg/mL (≈ 43.6 µM)
IC50 [10]: 41.16 ± 0.71 µg/mL (≈ 42.5 µM)
IC50 [11]: 36.97 ± 2.92 µg/mL (≈ 38.1 µM)
IC50 [12]: 31.93 ± 0.12 µg/mL (≈ 32.9 µM)
IC50 [13]: 32.88 ± 0.53 µg/mL (≈ 33.9 µM)
IC50 [14]: 20.61 ± 0.48 µg/mL (≈ 21.3 µM)
IC50 [15]: 20.18 ± 0.86 µg/mL (≈ 20.8 µM)
mouse weight compared with the model group ([16]; mouse, in vivo): no significant changes
SMILES: COC1C(OC(C)=O)CC(=O)OC(C)CC=CC=CC(OC2CCC(N(C)C)C(C)O2)C(C)CC(CC=O)C1OC1OC(C)C(OC2CC(C)(O)C(OC(=O)CC(C)C)C(C)O2)C(N(C)C)C1O (stereo not drawn) [Isovaleryl spiramycin II, isovaleryl spiramycin II]
Relative Tumor Proliferation Rate (T/C) [16, 17]: 44.05%
tumor growth inhibition rate [16, 17]: 55.74%
Relative Tumor Proliferation Rate (T/C) [16, 18]: 84.18%
tumor growth inhibition rate [16, 18]: 16.24%
tumor volume and relative tumor volume compared with the model group ([16]; HT-29, low, medium and high doses, P<0.05): significantly lower
Relative Tumor Proliferation Rate (T/C) [16, 19]: 79.34%
tumor growth inhibition rate [16, 19]: 32.41%
Inhibition Rate (%) ([16]; 25 mg/kg): 16.24%
Tumor Weight ([16]; 25 mg/kg): 1.97 ± 0.34 g
Inhibition Rate (%) ([16]; 50 mg/kg): 32.41%
Tumor Weight ([16]; 50 mg/kg): 1.59 ± 0.49 g
Inhibition Rate (%) ([16]; 100 mg/kg): 55.74%
Tumor Weight ([16]; 100 mg/kg): 1.04 ± 0.40 g
Relative Tumor Proliferation Rate (T/C) ([16]; dose 25 mg/kg): 84.18%
Relative Tumor Volume (RTV) ([16]; dose 25 mg/kg): 12.13 ± 3.40
Tumor Volume (mm3) (d 1) ([16]; dose 25 mg/kg): 163.26 ± 38.80 mm3
Tumor Volume (mm3) (d30) ([16]; dose 25 mg/kg): 1885.85 ± 219.49 mm3
Relative Tumor Proliferation Rate (T/C) ([16]; dose 50 mg/kg): 79.34%
Relative Tumor Volume (RTV) ([16]; dose 50 mg/kg): 11.43 ± 5.13
Tumor Volume (mm3) (d 1) ([16]; dose 50 mg/kg): 142.56 ± 22.44 mm3
Tumor Volume (mm3) (d30) ([16]; dose 50 mg/kg): 1568.80 ± 603.77 mm3
Relative Tumor Proliferation Rate (T/C) ([16]; dose 100 mg/kg): 44.05%
Relative Tumor Volume (RTV) ([16]; dose 100 mg/kg): 6.35 ± 2.87
Tumor Volume (mm3) (d 1) ([16]; dose 100 mg/kg): 156.45 ± 37.20 mm3
Tumor Volume (mm3) (d30) ([16]; dose 100 mg/kg): 921.49 ± 299.38 mm3
Body Weight (g) (d1) ([16]; mouse, in vivo, 25 mg/kg): 21.04 ± 1.28 g
Body Weight (g) (d30) ([16]; mouse, in vivo, 25 mg/kg): 20.88 ± 1.29 g
Body Weight (g) (d1) ([16]; mouse, in vivo, 50 mg/kg): 21.36 ± 1.35 g
Body Weight (g) (d30) ([16]; mouse, in vivo, 50 mg/kg): 20.9 ± 1.29 g
Body Weight (g) (d1) ([16]; mouse, in vivo, 100 mg/kg): 20.80 ± 0.89 g
Body Weight (g) (d30) ([16]; mouse, in vivo, 100 mg/kg): 21.53 ± 1.08 g
